Data on 8 molecules can be found in patent US20230416287A1, “Chemical Compounds” (GLAXOSMITHKLINE INTELLECTUAL PROPERTY DEVELOPMENT LIMITED, priority 2022, published 2023).

In brackets after ≈: the same amount, converted by molar mass.

A short description of series [1]: CAD kinetic solubility. Type of series: physicochemical. Conditions: phosphate buffered saline (PBS), aqueous buffer, PBS pH 7.4, 1 hour equilibration at room temperature, from DMSO stock, HPLC-CAD. As for the experimental part: Kinetic solubility was measured using Charged Aerosol Detector (CAD). The aqueous kinetic solubility at pH 7.4 was determined by measuring the concentration of solute in solution after precipitation from DMSO stock solution. The DMSO stock solution was diluted 20-fold with phosphate buffered saline (PBS) pH 7.4 and the solubility of the compound was measured after 1 hour equilibration at room temperature by HPLC-CAD.

For series [2], the target named is human Nav1.8 (Homo sapiens, UniProt Q9Y5Y9). Put plainly: Nav1.8 inhibitory activity, QPatch 48 HTX electrophysiology in HEK293-Nav1.8 cells. Details: expressed in transfected cells; host or cells: HEK293. Particulars: half inactivation state voltage protocol (V1/2), HEK293 cells expressing human Nav1.8, read-out: [Nav1.8] pIC50 (converted). It counts as cell-based. The method, then:
Biological Assay 1: Nav1.8 Inhibitory Activity Human embryonic kidney 293 cells (HEK293) expressing human Nav1.8, human Navol and human TREK1 (HEK293-Nav1.8) were grown in T150 cell culture flasks at 37° C., 5% CO2 incubator. HEK293-Nav1.8 were passaged every 2-3 days when confluency reached 80-90% in T150 cell culture flasks.
Pharmacological assessment of compounds of the invention was performed using the QPatch 48 HTX electrophysiological platform. HEK293-Nav1.8 cells were prepared on the day of use by removing culture media, washing in DPBS, adding Accutase (2 mL to cover the surface, aspirate 1 mL then 1-2 minutes at 37° C.) followed by addition of CHO-SFM II to stop the enzyme digestion and in order to obtain a suspension of 3×10^6 cell/mL.
Compounds of the invention were prepared in an extracellular solution of the following composition: NaCl (145 mM), KCl (4 mM), CaCl2) (2 mM), MgCl (2 mM), HEPES (1 mM), Glucose (10 mM), pH 7.4 with NaOH Osmolality 300 mOsM/L. An intracellular solution of the following composition was used: CsF (115 mM), CsCl (20 mm), NaCl (5 mM), EGTA (10 mM), HEPES (10 mM), Sucrose (20 mM), pH 7.2 with CsOH Osmolality 310 mOsm/L.
Utilizing the voltage-clamp mode in the QPatch 48 HTX system a half inactivation state voltage protocol (V1/2) was used to determine pharmacological activity of compounds of the invention at Nav1.8 ion channels. A V1/2 protocol was utilized with the following voltage steps: a holding voltage of −100 mV was established followed by a 20 ms voltage step to 0 mV (P1), followed by an inactivating voltage step at −46 mV for 8 seconds, followed by a step to −100 mV for 20 ms, before a 20 ms step to 0 mV (P2), then returned to the holding voltage of −100 mV. This voltage protocol was repeated at a frequency of every 15 seconds, the current magnitude was quantified at the P2 step throughout the recording. Inhibition of the measured current amplitude with compounds of the invention was analyzed by fitting a 4-6 points dose-response curve allowing determination of the fifty percent inhibition concentration (IC50). P2 currents were normalized according to measurements made at baseline (Baseline, vehicle only), after compound (Input, at each test concentration), and after positive reference compound (FullResponse, to achieve complete block), fit to the following equation: […]
To assess current run-down over the course of the experiment vehicle-only wells were utilized and the normalized current with vehicle-only (n. IVEH) was determined. To correct the compound response for run-down, the currents were corrected according to the following formula:
[formula] • Compound inhibition was fitted to the following Hill Equation to estimate the half maximal inhibition concentration (IC50)
[formula] • where Y is the normalized run-down corrected inhibition relative to the vehicle control (equivalent to n. IRD_Correct), C the test compound concentration, IC50 the concentration of test compound to inhibit the sodium current by 50%, and h the Hill coefficient.
(The patch-clamp technique gives a direct electrical read-out from membranes.)

The nature of series [3]: Rat IV/PO pharmacokinetic study. Type of series: in vivo, Han Wistar rats. As for the experimental part:
An in vivo rat pharmacokinetic study was conducted to determine whether prodrug compounds of the invention are converted to the respective parent compound upon administration. The rat pharmacokinetic study was conducted with a crossover design on two study days with a one-day recovery period between each study day. Three male, dual catheterized (femoral vein and carotid artery) Han Wistar rats were used for the study. Each rat was also implanted with a gastric catheter for oral dose administration. Rats were dosed at 1 mg/kg by a 60-minute intravenous (IV) infusion (femoral vein cannula), then subsequently oral dosed at 2 mg/kg via the gastric cannula, with 48 hours between dosing sessions. Dose solutions of the compound of Example 4 were prepared in 20% Cavitron/5% DMSO/75% water (IV) and in 6% Cavitron/5% DMSO/89% water (PO) without pH adjustment. The dose solutions were filtered using a 0.22 μm filter. The pH of the final dosing solutions was 6.0.
During the intravenous study leg, blood samples were collected from the carotid artery catheter at target times of 15, 30, 60 (end of infusion), 65, 75, 90, 120, 240, 360, 480, 720, and 1440 minutes following the initiation of the intravenous infusion of the compound of Example 4. During the oral study leg, blood samples were collected prior to dosing and at target times of 15, 30, 60, 90, 120, 180, 240, 360, 480, 720, and 1440 minutes following oral administration. Blood samples (100 μL) were mixed with 100 μL phosphatase inhibitor, a 50 μL aliquot of the blood and inhibitor mixture was transferred to a non-heparinized tube and stored at approximately −80° C. until analyzed. The concentrations in the filtered dose solutions were confirmed by preparing stepwise dilutions first into 50% aqueous acetonitrile with 0.10% formic acid then into heparinized male Wistar Han blood: inhibitor to achieve determined nominal concentrations. Triplicate 50 μL aliquots were removed and were frozen and stored at approximately […] until analyzed by LC-MS/MS as described below. LC-MS/MS was used to quantify the compound of Example 4 and the corresponding parent compound of Example 4A in the biological samples generated in the above described in vivo study.
Samples were prepared by protein precipitation followed by LC-MS/MS analysis employing positive-mode ionization against a set of calibration standards for the compounds prepared in the same matrix. Pharmacokinetic parameters for the study were derived from the concentration versus time profiles. Key pharmacokinetic parameters such as AUC0-∞. (extrapolated area under the blood concentration-time curve), AUC0-t (area under the blood concentration-time curve to the last time point with quantifiable drug), Cmax (maximum concentration), Tmax (time Cmax is achieved), CL (systemic blood clearance), Vdss (steady-state volume of distribution), MRT (mean residence time), and t1/2 (half-life) were determined for the compound of Example 4. The key pharmacokinetic parameters such as AUC0-∞, AUC0-t, Cmax, Tmax, MRT, and t1/2 (half-life) were determined for the parent compound Example 4A. Descriptive statistical data of pharmacokinetic parameters were calculated, including the mean and standard deviation (SD) using Microsoft Excel. The data are shown below in Tables 5A and 5B. Data are reported as mean±SD (N=3).

Setting [4] is: male, Han Wistar, prodrug Example 4 in blood, intravenous infusion of Example 4, 1 mg/kg, mean ± SD, N=3.
[5] abbreviates: male, Han Wistar, prodrug Example 4 in blood, intravenous infusion, 1 mg/kg, mean ± SD, N=3.

human Nav1.8, sequence (Q9Y5Y9 whole entry): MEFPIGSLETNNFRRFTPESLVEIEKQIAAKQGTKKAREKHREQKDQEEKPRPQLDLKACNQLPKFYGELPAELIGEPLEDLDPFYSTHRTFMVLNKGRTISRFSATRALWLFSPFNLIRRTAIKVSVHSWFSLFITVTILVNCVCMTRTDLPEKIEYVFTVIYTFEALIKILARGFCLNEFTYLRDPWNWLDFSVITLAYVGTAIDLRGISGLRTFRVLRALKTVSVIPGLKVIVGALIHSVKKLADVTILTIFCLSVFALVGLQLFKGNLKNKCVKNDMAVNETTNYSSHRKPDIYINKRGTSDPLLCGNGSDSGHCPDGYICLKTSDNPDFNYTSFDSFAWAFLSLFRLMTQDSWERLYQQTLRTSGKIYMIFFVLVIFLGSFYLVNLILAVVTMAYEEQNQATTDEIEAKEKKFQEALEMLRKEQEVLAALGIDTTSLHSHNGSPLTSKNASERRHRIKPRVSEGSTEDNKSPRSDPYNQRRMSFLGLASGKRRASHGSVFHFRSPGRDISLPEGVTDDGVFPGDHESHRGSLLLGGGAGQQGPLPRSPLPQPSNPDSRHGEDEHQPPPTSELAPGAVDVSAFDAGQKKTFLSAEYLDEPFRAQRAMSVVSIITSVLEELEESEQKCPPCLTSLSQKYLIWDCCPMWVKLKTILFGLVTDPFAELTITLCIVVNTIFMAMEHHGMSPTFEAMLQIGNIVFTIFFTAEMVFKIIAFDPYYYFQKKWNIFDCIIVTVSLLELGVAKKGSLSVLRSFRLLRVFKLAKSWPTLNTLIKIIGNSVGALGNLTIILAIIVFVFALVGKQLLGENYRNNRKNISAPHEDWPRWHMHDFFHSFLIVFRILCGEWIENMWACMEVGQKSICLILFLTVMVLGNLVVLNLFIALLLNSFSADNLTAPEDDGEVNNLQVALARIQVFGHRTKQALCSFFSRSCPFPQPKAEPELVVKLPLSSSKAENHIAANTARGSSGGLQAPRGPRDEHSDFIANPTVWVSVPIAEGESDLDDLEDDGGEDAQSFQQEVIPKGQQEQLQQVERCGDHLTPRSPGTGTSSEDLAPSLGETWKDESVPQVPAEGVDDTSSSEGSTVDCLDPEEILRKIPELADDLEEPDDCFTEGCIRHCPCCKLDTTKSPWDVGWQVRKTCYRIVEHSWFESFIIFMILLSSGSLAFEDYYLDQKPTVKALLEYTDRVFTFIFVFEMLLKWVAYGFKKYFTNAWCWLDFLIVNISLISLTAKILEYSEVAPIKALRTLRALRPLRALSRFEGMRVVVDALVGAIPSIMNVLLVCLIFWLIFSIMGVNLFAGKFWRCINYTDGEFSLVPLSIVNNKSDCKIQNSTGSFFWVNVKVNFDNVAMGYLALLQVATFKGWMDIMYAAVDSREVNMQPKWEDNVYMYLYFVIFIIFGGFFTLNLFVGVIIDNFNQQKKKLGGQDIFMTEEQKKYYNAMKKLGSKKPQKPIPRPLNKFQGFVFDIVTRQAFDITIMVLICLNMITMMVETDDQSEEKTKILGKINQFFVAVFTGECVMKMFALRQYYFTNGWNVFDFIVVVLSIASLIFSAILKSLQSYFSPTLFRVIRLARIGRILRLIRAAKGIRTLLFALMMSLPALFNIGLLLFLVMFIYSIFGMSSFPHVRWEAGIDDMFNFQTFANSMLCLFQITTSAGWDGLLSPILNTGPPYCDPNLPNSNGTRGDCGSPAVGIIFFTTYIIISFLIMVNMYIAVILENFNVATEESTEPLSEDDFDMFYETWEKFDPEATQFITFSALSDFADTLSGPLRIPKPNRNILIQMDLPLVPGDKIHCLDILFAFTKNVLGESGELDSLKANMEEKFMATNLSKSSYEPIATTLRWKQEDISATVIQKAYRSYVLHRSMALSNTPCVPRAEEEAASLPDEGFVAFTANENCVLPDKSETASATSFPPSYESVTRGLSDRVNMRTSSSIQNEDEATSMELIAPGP

One may read the solubility as the concentration that dissolves in the medium under given conditions. Lower therefore signals a poorly soluble substance. On to `Cc1cc(F)ccc1N1CN(c2ccc(=O)n(COP(=O)(O)O)c2C)C(=O)c2cc(C(F)(F)F)c(F)cc21` [Example 1, (5-(7-fluoro-1-(4-fluoro-2-methylphenyl)-4-oxo-6-(trifluoromethyl)-1,4-dihydroquinazolin-3(2H)-yl)-6-methyl-2-oxopyridin-1(2H)-yl)methyl dihydrogen phosphate], for which, in series [1], the solubility at 1 h was ≥ 192 µg/mL. The IC50 in series [2] is 31.6 nM.
`Cc1cc(F)ccc1N1CN(c2ccc(=O)[nH]c2C)C(=O)c2cc(C(F)(F)F)c(F)cc21` [Example 1A, 7-fluoro-1-(4-fluoro-2-methylphenyl)-3-(2-methyl-6-oxo-1,6-dihydropyridin-3-yl)-6-(trifluoromethyl)-2,3-dihydroquinazolin-4(1H)-one]: the solubility at 1 h in series [1] worked out at 32 µg/mL (≈ 71.2 µM). Besides, the IC50 in series [2] is 10 nM.
Regarding `Cc1cc(OC(F)(F)F)ccc1N1CN(c2cc(C)c(=O)n(COP(=O)(O)O)c2C)C(=O)c2cc(C(F)(F)F)cnc21` [Example 2, (3,6-dimethyl-5-(1-(2-methyl-4-(trifluoromethoxy)phenyl)-4-oxo-6-(trifluoromethyl)-1,4-dihydropyrido[2,3-d]pyrimidin-3(2H)-yl)-2-oxopyridin-1(2H)-yl)methyl dihydrogen phosphate], in series [1], the solubility at 1 h was ≥ 217 µg/mL. The IC50 in series [2] was 501 nM.
Taken in the same sequence, the figures for `Cc1cc(OC(F)(F)F)ccc1N1CN(c2cc(C)c(=O)[nH]c2C)C(=O)c2cc(C(F)(F)F)cnc21` [Example 2A, 3-(2,5-dimethyl-6-oxo-1,6-dihydropyridin-3-yl)-1-(2-methyl-4-(trifluoromethoxy)phenyl)-6-(trifluoromethyl)-2,3-dihydropyrido[2,3-d]pyrimidin-4(1H)-one] were 56 µg/mL (≈ 109 µM) and 20 nM.
With `Cc1c(N2CN(c3ccc(=O)n(COP(=O)(O)O)c3C)C(=O)c3cc(C(F)(F)F)ncc32)ccc(F)c1F` [Example 3, (5-(1-(3,4-Difluoro-2-methylphenyl)-4-oxo-6-(trifluoromethyl)-1,4-dihydropyrido[3,4-d]pyrimidin-3(2H)-yl)-6-methyl-2-oxopyridin-1(2H)-yl)methyl dihydrogen phosphate], in series [1], the solubility at 1 h is 224 µg/mL. In addition, in series [2], the IC50 was 1260 nM.
As to `Cc1[nH]c(=O)ccc1N1CN(c2ccc(F)c(F)c2C)c2cnc(C(F)(F)F)cc2C1=O` [Example 3A, 1-(3,4-difluoro-2-methylphenyl)-3-(2-methyl-6-oxo-1,6-dihydropyridin-3-yl)-6-(trifluoromethyl)-2,3-dihydropyrido[3,4-d]pyrimidin-4(1H)-one], in series [1], the solubility at 1 h was ≥ 210 µg/mL. The IC50 in series [2] was 100 nM.
The term Cmax denotes the highest concentration seen after dosing. A word on the MRT: it is a mean duration of stay, worked out from the concentration-time curve. The half-life is how long it takes for the measured level to halve. Usually AUC(0-inf) stands for total exposure, with the tail of the curve extrapolated. In general, AUC(0-t) refers to the area under the concentration-time curve up to a stated or last time point. On to `Cc1c(N2CN(c3ccc(=O)n(COP(=O)(O)O)c3C)C(=O)c3cc(F)c(Cl)cc32)ccc(F)c1F` [Example 4, (5-(7-chloro-1-(3,4-difluoro-2-methylphenyl)-6-fluoro-4-oxo-1,4-dihydroquinazolin-3(2H)-yl)-6-methyl-2-oxopyridin-1(2H)-yl)methyl dihydrogen phosphate], for which the solubility at 1 h in series [1] came out at 157 µg/mL. Besides, in series [3] (male, Han Wistar, blood, prodrug Example 4, intravenous infusion, 1 mg/kg, mean ± SD, N=3, read-out: Vdss), the Vd worked out at 0.687 ± 0.284 L/kg. Further, in series [3] (male, Han Wistar, prodrug Example 4 in blood, 60-minute intravenous infusion of Example 4, 1 mg/kg (Table 5A: 1.2 ± 0.1 mg/kg), mean ± SD, N=3), the peak concentration (Cmax) was determined as 238 ± 45 ng/mL. For the same molecule, in series [3] (setting [4]), the MRT worked out at 6 ± 1.2 min and the half-life was 40.2 ± 17.4 min. For the same molecule, in series [3] (setting [5]), the AUC(0-inf) amounted to 197 ± 44 ng·h/mL and the AUC(0-t) was 197 ± 284 ng·h/mL. Also, in series [3] (male, Han Wistar, systemic blood clearance of prodrug Example 4, intravenous infusion, 1 mg/kg, mean ± SD, N=3), the clearance was found to be 110 ± 33 mL/min/kg. The “quantifiable concentrations following oral administration” value in series [3] (prodrug Example 4 in blood, oral via gastric cannula, 2 mg/kg (Table 5A: 3.0 ± 0.0 mg/kg)) was “There were no”. In series [2], the IC50 is 31.6 nM.
In turn, `Cc1cc(F)ccc1N1CN(c2ccc(=O)n(COP(=O)(O)O)c2C)C(=O)c2cc(F)c(Cl)cc21` [Example 5, (5-(7-Chloro-6-fluoro-1-(4-fluoro-2-methylphenyl)-4-oxo-1,4-dihydroquinazolin-3(2H)-yl)-6-methyl-2-oxopyridin-1(2H)-yl)methyl dihydrogen phosphate] yielded a solubility at 1 h in series [1] of 135 µg/mL. The IC50 in series [2] is 63.1 nM.
